This is an account of results in patent US20020160055A1, “Methods for treating human immunodeficiency virus infections with gallium compositions” (priority 2000, published 2002).

What is called IC50 is the concentration that gives 50% inhibition.

For one series, the system named is HIV-1. Description: Inhibition of HIV replication in PHA/IL2 stimulated PBMC's (p24 antigen in culture supernatants). The format is cell-based. How it is done:
FIG. 1—Gallium Nitrate and Hydroxyurea Inhibition of HIV-1 Replication. PHA/IL-2 stimulated human PBMC's (1×10^6), and MT-2 cells (1×10^6) were grown and maintained in RPMI 1640 media containing 20% fetal calf sera, glutamine and antibiotics (Thelander & Reichard, 1979). Experiments were carried out in duplicate, and experiments repeated a minimum of three times. Gallium nitrate (Ga) was obtained from the National Cancer Institute. Hydroxyurea (HU) was obtained from Sigma Chemicals (St. Louis, Mo.). Ga and HU were added to PBMC's 24 hrs prior to infection, and cells were washed 16 hrs post-infection. Culture supernatants were obtained 4 and 7 days post-infection for p24 antigen measurement.
(§1) Various concentrations of Ga or HU were added to PHA/IL2 stimulated PBMC's 24 hours prior to infection with HIV. Following infection, cells were washed and culture supernatants were obtained 4 and 7 days post-infection.
HIV (Catalog# 1073, NIH AIDS Reference Program) was used in these studies. […] Viral replication was measured by determining the concentration of p24 antigen in culture supernatants (Organon-Teknika), and by visually observing a reduction in syncytia formation (Cook et al., 1997). In addition, a quantitative measurement of syncytia induction—inhibition was employed (described below). […]

The next series deals with PBMC. Description: Effects on PBMC proliferation and viability (Trypan blue staining and counting). The format is cell-based, human. Particulars: 48 hrs. As to the method:
FIG. 4—Effects of Gallium Nitrate on PBMC Proliferation and Viability. Experiments were carried out in duplicate, and experiments repeated a minimum of three times. Gallium nitrate (Ga) was obtained from the National Cancer Institute. Cells were incubated in Ga at concentrations noted, and were stained at 48 hrs with Trypan blue and counted.
as §1

Another series concerns HIV. Particulars: results of U.S. Pat. No. 5,525,598; cited from earlier work.

The molecule `NC(=O)NO` [HU, Hydroxyurea] showed a half-inhibitory concentration (IC50) with HIV-1 (Human immunodeficiency virus 1, PHA/IL2 stimulated PBMC's, added 24 hours prior to infection, supernatants 4 and 7 days post-infection) of 120 µM. Consider `O=[N+]([O-])[O-].O=[N+]([O-])[O-].O=[N+]([O-])[O-].[Ga+3]` [Ga, Gallium nitrate], for which, in the series on HIV-1 (present culture system), the “fold lower IC50 of Ga than HU” value is reported as “approximately 15 fold”. Further, the “effect on cellular proliferation or viability at concentrations inhibiting HIV replication” value in the series on PBMC is listed as “did not inhibit cellular proliferation or viability”. Consider `Cc1cn([C@H]2C[C@H](N=[N+]=[N-])[C@@H](CO)O2)c(=O)[nH]c1=O` [3′-azido-2,3′-deoxythymidine], for which the therapeutic index in the series with HIV is given as 3680.
